Data reported in patent US10149907B2, “Combinations of a photosensitizer with a hydrogen sulfide donor, thioredoxin inhibitor or nitroxide for use in photodynamic therapy” (UNIVERSITY OF EXETER, priority 2014, dated 2018).
Values joined by “and” are separate entries in the source; they are usually repeats but may differ in a detail not shown here. Equal values may be shown once. “Also recorded” adds a separate entry of the source. Read-outs that look alike come from different tables or passages of the source.

Experiments:
A431 cells [1] = assay: Photodynamic cell killing in the presence of inhibitors of the thioredoxin antioxidant system or nitroxides (annexin V-FITC/propidium iodide flow cytometry); assay type: cell-based, human; details: for cell death: 3 h, irradiation; for potentiating effect on MAL photodynamic cell killing: summary of Examples 2A, 3A
Protocol: After this treatment, the cells were irradiated for 5 min (630 nm, 25 J/cm^2), then washed with PBS and the culture medium was replaced, after which the cells were placed back under 2% O2 and incubated for a further 3 h. Following this final incubation, cell death was analysed by annexin V-FITC and propidium iodide staining in conjunction with flow cytometry.
Cell death analysis by flow cytometry was carried out using the annexin V-FITC/propidium iodide protocol. This protocol allows a quantitative assessment of cell death, particularly specific modes of death, and involves staining the cells with fluorescein isothiocyanate-conjugated annexin A5 (annexin V-FITC) and propidium iodide (PI). Positive staining with annexin V-FITC alone indicates an apoptotic cell; positive staining with PI alone indicates a necrotic cell and dual staining of both annexin V and PI indicates a “late apoptotic” cell.
From each flask being assessed, the old medium was removed and placed into a corresponding individual 15 ml Falcon tube in order to collect any cells that may have detached from the surface. The flask was washed once with 1 ml PBS; also deposited in the Falcon tubes. Trypsin (500 μl) was added to each flask and the flasks were returned to the incubator with their caps loosened. Cell detachment was monitored using an inverted light microscope, until 50% of the cells were detached. The flasks were then lightly tapped to detach the remainder of the cells. Medium (2 ml) was added to each flask in order to neutralise the trypsin present before being removed and dispensed into the Falcon tubes. One more wash with PBS was carried out in order to ensure any cells left in the flasks were collected. The Falcon tubes were then centrifuged at 490 g for 3 min, forming a pellet at the bottom of the tube. The supernatant was discarded, and the cells were re-suspended in 5 ml of PBS, in order to wash them, before being centrifuged again at 490 g for 3 min. The wash stage was carried out once more before re-suspending the cell pellet in 95 μl of ice cold calcium (Ca^2+) buffer (50 mM HEPES, 700 mM NaCl, 12.5 mM CaCl2, pH 7.4) and adding 5 μl 12.5 μg/ml of annexin V-FITC (final concentration, 1.25 μg/ml), under reduced light conditions to prevent bleaching of the FITC. The Falcon tubes were placed on ice and in the dark for 15 min to allow annexin V staining. After 15 min, 860 μl of Ca^2+ buffer (10 mM Hepes adjusted to pH 7.4, 140 mM NaCl and 2.5 mM CaCl2) was added, followed by 40 μl of 1 mg/ml PI in water (final concentration, 0.04 mg/ml) to give a final volume of 1 ml. The samples were then ready to be assessed by flow cytometry.
The following flow cytometry process of sample detection was used. When using annexin V-FITC and PI, the detectors being used were FL1 (λmax=520 nm) and FL3 (λmax=670 nm), respectively, each with their own logarithmic histogram generated by the software. The intensity of the fluorescence detected is measured on a logarithmic scale on the x-axis and the y-axis represents the number of cells detected at a given fluorescence intensity. A plot of FL1/FL3 produces a 4-quadrant graph, where unstained and untreated cells are located in the bottom left quadrant, representing any cells found in the 1st decade of the single plot logarithmic histograms. Single staining with annexin V-FITC and PI are located in the bottom right and top left quadrant, respectively, and dual staining is located in the top right quadrant. These quadrants represent any cells detected above the 1st decade of the logarithmic histograms.

A431 cells [2] = assay: Mitochondrial reactive oxygen species generation during photodynamic irradiation, MitoSOX flow cytometry; assay type: cell-based, human; details: 3 hours, irradiated
Protocol: A431 cells were treated concurrently with AP39-C10 (10, 100 or 1000 nM) for 5 hours, MAL (1 mM) for 3 hours and MitoSOX (2.5 μM) for 1 hour, after which they were irradiated for 5 min (630 nm, 25 J/cm^2) and MitoSOX (mito-2-OH-E^+) fluorescence, indicative of mitochondrial oxidant production, was immediately analysed by flow cytometry. Results are set out in FIG. 23.
Mitochondria-targeted dihydroethidium (i.e. MitoSOX) was used to assess the production of mitochondrial reactive oxygen species (ROS) by PpIX photochemical reactions and to determine the effects of AP39-C10 on this process. All of the results are represented as a percentage of the untreated controls (100.0±8.5%). The fluorescence of the photoirradiated cells, which had been pre-treated with MAL, was 193.7±7.3% (p<0.001 c.f. untreated controls).

A431 cells [3] = system: A431 cells
Protocol: A431 cells were seeded at a density of 1×10^5 cells/ml in 96 well plates and incubated under 2% O2 for 48 h prior to treatment. After 24 h, the culture medium was replaced and the cells were placed back into the incubators under 2% O2. Following this incubation period, the culture medium was then removed and the plates were washed with PBS. The cells were then treated with 1 mM MAL in the absence or presence of one of the compounds of interest and then incubated again at 2% O2 for 3 h. For experiments carried out with SRHDs, this treatment step was carried out for 5 h at 2% O2. After treatment, the cells were washed with PBS, the culture medium was replaced and the cells were placed back under 2% O2 for 3 h. Following this final incubation, cell death was analysed using the resazurin viability assay.
Resazurin (7-hydroxy-3H-phenoxazin-3-one 0-oxide) is a weakly fluorescent blue dye used primarily in oxidation-reduction cell viability assays. Irreversible NADH-dependent reduction by the mitochondria in mammalian cells leads to the production of resorufin, a highly fluorescent product with excitation at 571 nm, emission at 585 nm.
A431 cells were seeded into 96 well plates at a density of 1.5*10^6 cells per ml (200 μl per well, 3*10^5 cells) and incubated for 24 h to adhere. Following incubation, the cells were washed and treated with the compound of interest for the relevant time, and then washed with PBS. […] After a 2 h incubation, the fluorescence of each well was measured (excitation: 571 nm, emission: 585 nm) using a fluorescence plate reader. Data from these experiments was plotted as a percentage of cell viability compared to untreated control cells.

A431 cells [4] = assay: MAL-induced PpIX accumulation, fluorescence plate reader; assay type: cell-based, human; details: for PpIX accumulation, percentage of the MAL alone treatment: FIG. 38; for effect on PpIX fluorescence: 0.01 mM + 1 mM MAL; for increase in PpIX fluorescence: 1 mM + 1 mM MAL
[5] = 1 mM MAL + co-treatment 1 mM (1000 μM)
[6] = 1 mM MAL + nitroxide 1 mM (MitoTEMPO 50 μM) + irradiation, FIG. 13, 34
[7] = MAL 1 mM + co-treatment 1 mM (1000 μM)

Structure (SMILES)	cell death (A431 cells [1]; [5])	modes of cell death (A431 cells [1]; [6])	potentiating effect on MAL photodynamic cell killing (A431 cells [1])	MitoSOX fluorescence, percentage of untreated cells (A431 cells [2]; [7])	cell viability, percentage of untreated control (A431 cells [3]; 0.25 mM with 1 mM MAL, 3 hours) [%]	cell viability, percentage of untreated control (A431 cells [3]; 0.5 mM with 1 mM MAL, 3 hours) [%]	cell viability, percentage of untreated control (A431 cells [3]; 1 mM with 1 mM MAL, 3 hours) [%]	cell viability, percentage of untreated control (A431 cells [3]; 2 mM with 1 mM MAL, 3 hours) [%]	cell viability, percentage of untreated control (A431 cells [3]; 5 mM with 1 mM MAL, 3 hours) [%]	cell viability, percentage of untreated control (A431 cells [3]; 10 mM with 1 mM MAL, 3 hours) [%]	PpIX accumulation, percentage of the MAL alone treatment (A431 cells [4]; 10 μM + MAL 1 mM, 3 hours) [%]	effect on PpIX fluorescence (A431 cells [4]; 3 h)	PpIX accumulation, percentage of the MAL alone treatment (A431 cells [4]; 100 μM + MAL 1 mM, 3 hours) [%]	increase in PpIX fluorescence (A431 cells [4]; 3 h) [fold]	PpIX accumulation, percentage of the MAL alone treatment (A431 cells [4]; 1000 μM + MAL 1 mM, 3 hours) [%]	cell viability, percentage of untreated control (A431 cells [3]; 10 mM, 24 hours) [%]	cell viability, percentage of untreated control (A431 cells [3]; 50 mM, 24 hours) [%]	also measured
CC1(C)CC(O)CC(C)(C)N1[O] [TEMPOL, 4-hydroxy-2,2,6,6-tetra methylpiperidine 1-oxyl]	50.8±6.8% and 69.3±3.1%	an increase in late apoptotic and necrotic cell death; also recorded: a further increase in late apoptosis and necrosis with little effect on apoptotic cell death	more robust potentiating effect	253.3±6.3% and 316.8±1.6%	99.3±4.4	102.0±3.6	99.8±2.9	104.2±3.3	116.2±2.7	77.8±4.7	109.0±2.7	increased PpIX fluorescence slightly, but this was not statistically significant	141.2±4.2	~2	209.2±5.1	–	–	modes of cell death (A431 cells [1]; 1 mM MAL + TEMPOL, dependent on concentration + irradiation, FIG. 37): an increase in apoptosis and late apoptosis, with smaller increases in necrosis also observed; cell death (A431 cells [1]; 1 mM MAL + co-treatment 10 μM): 40.5±4.1%; cell death (A431 cells [1]; 1 mM MAL + co-treatment 100 μM): 48.5±7.4%; MitoSOX fluorescence, percentage of untreated cells (A431 cells [2]; MAL 1 mM + co-treatment 10 μM): 99.4±5.44%; MitoSOX fluorescence, percentage of untreated cells (A431 cells [2]; MAL 1 mM + co-treatment 100 μM): 226.5±19.4%; effect on PpIX accumulation (A431 cells [4]; 0.1 mM and 1 mM + 1 mM MAL, 3 h): significantly increased PpIX accumulation further
CC1(C)CCCC(C)(C)N1[O] [TEMPO, 2,2,6,6-tetramethyl-1-piperidinyloxy]	52.0±8.3% and 46.3±3.6%	an increase in apoptotic and late apoptotic cell death; also recorded: a further increase in late apoptosis and necrosis with little effect on apoptotic cell death	more robust potentiating effect	418.8±6.3%	97.8±3.4	97.5±1.7	98.6±6.8	97.4±6.2	92.9±6.6	79.9±8.5	100.3±3.8	increased PpIX fluorescence slightly, but this was not statistically significant	127.0±3.3	~2	159.2±4.1	64.9±0.1	8.5±0.2	increase in PpIX accumulation compared to MAL alone (A431 cells [4]; 50 μM + MAL 1 mM, 3 hours, FIG. 35): 0.0±4.9%; peak response, increase in PpIX accumulation compared to MAL alone (A431 cells [4]; peak at TEMPO 5 mM, MitoTEMPO 100 μM, CP94 100 μM, MAL 1 mM, 3 hours): 138.1±10.5%
CC1(C)CC(=O)CC(C)(C)N1[O] [TEMPONE]	37.9±2.3%	a further increase in late apoptosis and necrosis with little effect on apoptotic cell death	mild potentiating effect	226.4±6.8%	–	–	–	–	–	–	100.3±4.0	–	123.8±2.5	–	160.2±3.2	80.3±13.3	53.7±13.3	–
